Source: patent EP4656642A1, “ESTROGEN RECEPTOR PROTEOLYSIS TARGETING CHIMERA COMPOUND AND USE THEREOF” (GAN & LEE PHARM CO., LTD, priority 2023, dated 2024)

Legend:
Type in all cases: cell-based
ERα [1] = target: T1, ERα (Homo sapiens, UniProt P03372); test: Degradation of ERα in MCF-7 cells (immunoblotting, 4 h)
T1 sequence (P03372 1-595): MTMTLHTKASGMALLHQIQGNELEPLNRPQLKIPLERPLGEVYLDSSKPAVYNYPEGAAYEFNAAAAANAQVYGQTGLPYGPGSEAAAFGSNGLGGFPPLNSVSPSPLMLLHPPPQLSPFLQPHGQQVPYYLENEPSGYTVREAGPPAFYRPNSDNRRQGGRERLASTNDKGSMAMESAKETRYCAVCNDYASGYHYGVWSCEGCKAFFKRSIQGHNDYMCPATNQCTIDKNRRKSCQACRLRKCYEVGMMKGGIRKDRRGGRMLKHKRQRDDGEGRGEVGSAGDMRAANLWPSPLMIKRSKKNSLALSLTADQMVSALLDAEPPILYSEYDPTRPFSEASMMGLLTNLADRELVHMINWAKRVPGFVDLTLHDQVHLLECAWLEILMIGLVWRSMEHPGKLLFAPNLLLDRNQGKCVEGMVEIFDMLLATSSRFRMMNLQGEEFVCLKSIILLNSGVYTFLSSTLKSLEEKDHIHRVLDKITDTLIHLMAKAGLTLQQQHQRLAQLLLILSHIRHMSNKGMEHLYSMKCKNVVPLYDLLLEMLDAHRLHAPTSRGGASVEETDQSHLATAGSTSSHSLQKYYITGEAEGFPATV
Method in brief: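 Degradation rate reflects ERα band intensity, corrected to an internal reference protein, relative to control. Values come from Western blotting of lysates from MCF-7 cells exposed 4 h at 37°C to compounds at final concentrations of 0.15-1000nM.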

T-47D cells = test: Inhibition of cell proliferation in T-47D cells (CCK-8, 6 days); conditions: 6 days of treatment, Table 3
Method in brief: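 Viability read-out was CCK-8 after 6 days of compound treatment (37 °C, 5% CO2) across graded concentrations. Cells were T-47D seeded at 3,000 per well in 1640 medium plus 10% FBS. IC50 was calculated against proliferation.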

MCF-7 cells = test: Inhibition of cell proliferation of MCF-7 cells (CCK-8, 9 days); conditions: treated for 9 days, CCK-8 kit (Table 6)
Method in brief: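 Read-out was CCK-8 viability after 9-day continuous exposure (37°C, 5% CO2) of MCF-7 cells plated at 800/well in 10% FBS DMEM across several compound concentrations. Values are proliferation IC50s.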

ERα [2] = target: T1, ERα; test: Degradation of ERα in T-47D cells (immunoblotting, 4 h); parameters: host or cells: T-47D
Method in brief: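 ERα protein levels were assessed by immunoblot of RIPA lysates (with protease inhibitor) after 4 h exposure at 37°C. Compound was added in DMSO to T-47D cells at final concentrations of 0.15-1000 nM.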

SMILES	Degradation rate (%) of ERα in MCF-7 cells (ERα [1]; 1nM compound) [%]	Degradation rate (%) of ERα in MCF-7 cells (ERα [1]; 10nM compound) [%]	IC50 (T-47D cells) [µM]	IC50 (MCF-7 cells) [µM]	Degradation rate (%) of ERα in T-47D cells (ERα [2]; 1nM compound) [%]	Degradation rate (%) of ERα in T-47D cells (ERα [2]; 10nM compound) [%]
O=C1CCC(N2Cc3c(ccc4c3OCC43CCN(C(=O)C4CCC(CN5CCC(C#Cc6ccc(C7c8ccc(O)cc8CCC7c7ccccc7)cc6)CC5)CC4)CC3)C2=O)C(=O)N1 (stereo not drawn) [C6]	27	42	0.00293	0.0925	38	49
O=C1CCC(N2Cc3cc4c(cc3C2=O)CCC2(CN(C(=O)[C@H]3CC[C@H](CN5CCN(c6ccc([C@@H]7c8ccc(O)cc8CC[C@@H]7c7ccccc7)cc6)CC5)CC3)C2)O4)C(=O)N1 (stereo partly drawn) [C7]	38	63	0.00175	0.0847	45	74
O=C1CCC(N2Cc3cc4c(cc3C2=O)OC2(CC4)CN(C(=O)[C@H]3CC[C@H](CN4CCN(c5ccc([C@@H]6c7ccc(O)cc7CC[C@@H]6c6ccccc6)cc5)CC4)CC3)C2)C(=O)N1 (stereo partly drawn) [C8]	29	40	0.00099	2.73	60	78
C[C@@H]1Cc2c(ccc3[nH]ncc23)[C@@H](c2c(F)cc(N3CCC4(CCN(CC(=O)N5CCC6(CC5)COc5c6ccc6c5CN(C5CCC(=O)NC5=O)C6=O)CC4)CC3)cc2F)N1CC(F)F (stereo partly drawn) [C10]	53	65	0.0005	0.0548	65	80
C[C@@H]1Cc2c(ccc3[nH]ncc23)[C@@H](c2c(F)cc(N3CCC4(CCN(CC(=O)N5CCC6(CC5)COc5c6ccc6c5CN(C5CCC(=O)NC5=O)C6=O)C4)CC3)cc2F)N1CC(F)F (stereo partly drawn) [C11]	60	69	0.00066	5.97	56	68
C[C@@H]1Cc2c(ccc3[nH]ncc23)[C@@H](c2c(F)cc(N3CCN(C[C@H]4CC[C@H](C(=O)N5CCC6(CC5)COc5c6ccc6c5CN(C5CCC(=O)NC5=O)C6=O)CC4)CC3)cc2F)N1CC(F)F (stereo partly drawn) [C12]	-34	22	0.0374	0.18	27	47
C[C@@H]1Cc2c(ccc3[nH]ncc23)[C@@H](c2c(F)cc(N3CCC4(CCN(C(=O)CN5CCC6(CC5)COc5c6ccc6c5CN(C5CCC(=O)NC5=O)C6=O)CC4)CC3)cc2F)N1CC(F)F (stereo partly drawn) [C13]	41	62	0.00061	0.00324	46	70
C[C@@H]1Cc2c(ccc3[nH]ncc23)[C@@H](c2c(F)cc(N3CCC4(CCN(C(=O)CN5CCC6(CC5)COc5c6ccc6c5CN(C5CCC(=O)NC5=O)C6=O)C4)CC3)cc2F)N1CC(F)F (stereo partly drawn) [C14]	41	55	0.00096	0.015	50	66
CN(C(=O)CN1CCC2(CC1)COc1c2ccc2c1C(=O)N(C1CCC(=O)NC1=O)C2=O)C1CCC2(CC1)CCN(c1ccc([C@@H]3c4ccc(O)cc4CC[C@@H]3c3ccccc3)cc1)CC2 (stereo partly drawn) [C15]	18	45	0.00907	0.406	41	71
CN(CC(=O)N1CC2(CCc3cc4c(cc3O2)C(=O)N(C2CCC(=O)NC2=O)C4)C1)C1CCC2(CC1)CN(c1ccc([C@@H]3c4ccc(O)cc4CC[C@@H]3c3ccccc3)cc1)C2 (stereo partly drawn) [C18]	10	29	0.0111	11.4	24	50
CN(CC(=O)N1CCC2(CC1)COc1c2ccc2c1C(=O)N(C1CCC(=O)NC1=O)C2=O)C1CCC2(CC1)CN(c1ccc([C@@H]3c4ccc(O)cc4CC[C@@H]3c3ccccc3)cc1)C2 (stereo partly drawn) [C19]	15	45	0.0147	23.1	32	65
O=C1CCC(N2Cc3c(ccc4c3OCC43CCN(C4CCC5(CC4)CCN(c4ccc(C6=C(c7ccc(Cl)cc7Cl)CCCc7cc(C(=O)O)ccc76)cc4)CC5)CC3)C2=O)C(=O)N1 (stereo not drawn) [F11]	14	43	0.0104	0.103	20	57
O=C1CCC(N2Cc3c(ccc4c3OCC43CCN(C4CC5(C4)CC4(CCN(c6ccc([C@@H]7c8ccc(O)cc8CC[C@@H]7c7ccccc7)cc6)CC4)C5)CC3)C2=O)C(=O)N1 (stereo partly drawn) [G6]	8	46	0.00421	25.4	33	71
C[C@@H]1Cc2c(ccc3[nH]ncc23)C(c2c(F)cc(N3CC4(CCC(N5CCC6(CC5)COc5c6ccc6c5CN(C5CCC(=O)NC5=O)C6=O)CC4)C3)cc2F)N1CC(F)F (stereo partly drawn) [G21]	45	57	0.0251	0.0086	34	63
O=C1CCC(N2Cc3cc4c(cc3C2=O)OC2(CC4)CN(CC3CCN(c4ccc([C@@H]5c6ccc(O)cc6CC[C@@H]5c5ccccc5)cc4)CC3)C2)C(=O)N1 (stereo partly drawn) [H3]	-20	-37	0.2	2.41	-43	-56
O=C1CCC(N2Cc3ccc4c(c3C2=O)OCC2(CCN(CC3CCN(c5ccc([C@@H]6c7ccc(O)cc7CC[C@@H]6c6ccccc6)cc5)CC3)CC2)C4)C(=O)N1 (stereo partly drawn) [H5]	-3	-12	0.0224	2.26	18	12
O=C1CCC(N2Cc3ccc4c(c3C2=O)OC2(CC4)CCN(CC3CCN(c4ccc([C@@H]5c6ccc(O)cc6CC[C@@H]5c5ccccc5)cc4)CC3)CC2)C(=O)N1 (stereo partly drawn) [H7]	12	-2	0.0104	0.33	-11	-15
O=C1CCC(N2Cc3c(ccc4c3OCC43CCN(CC4CCN(c5ccc([C@@H]6c7ccc(O)cc7CC[C@@H]6c6ccccc6)cc5)CC4)CC3)C2=O)C(=O)N1 (stereo partly drawn) [H8]	-23	-48	0.0319	27.2	-20	-37
O=C1CCC(N2Cc3c(ccc4c3OCC43CCN(C4CCN(C(=O)c5ccc([C@@H]6c7ccc(O)cc7CC[C@@H]6c6ccccc6)cc5)CC4)CC3)C2=O)C(=O)N1 (stereo partly drawn) [H9]	-39	-54	0.594	5.02	-3	-31
O=C1CCC(N2Cc3cc4c(cc3C2=O)OC2(CC4)CN(C3CCN(C(=O)c4ccc([C@@H]5c6ccc(O)cc6CC[C@@H]5c5ccccc5)cc4)CC3)C2)C(=O)N1 (stereo partly drawn) [H11]	-39	-41	0.124	24.1	-16	8
